Data reported in US12268726B2, “Treatment of rhinosinusitis with P-glycoprotein inhibitors” (Massachusetts Eye and Ear Infirmary, priority 2012, dated 2025).
Like-named read-outs stand apart in the source and are kept apart here.

Legend:
P-gp [1] = target: T1, P-gp (Homo sapiens, UniProt P08183); conditions: Varma et al., 2003; cited from earlier work
HSNECC cells = assay type: cell-based; conditions: human, 24 h, 8 µM
Protocol: (§1) For P-gp mediated cytokine secretion testing, HSNECC cells were exposed to 0.05 mg/mL LPS stimulation for 23 hours with or without concomitant P-gp inhibition using PSC 833 (8 μM), which was applied one hour prior to LPS stimulation. Control wells were considered those exposed to culture medium alone (BEGM). A 0.4% trypan blue (Sigma, St. Louis, MO) cell survival assay was used to ensure the stimulant and inhibitor exposures were not cytotoxic. In all wells less than 20% of cells were stained blue indicating greater than 80% survival. Following the LPS and PSC 833 exposures, the media was removed from each well. Cytokine concentrations for GM-CSF, IL-6, IL-8, and IL-25 in each well were determined by ELISA according to the manufacturer guidelines (GM-CSF, IL-6, IL-8 eBioscience, San Diego, CA; IL-25 Assay Biotechnology, San Francisco, CA). Cytokine concentrations were normalized to total media protein concentrations using a Pierce BCA Protein Assay Kit.

P-gp [2] = target: T1, P-gp; test: Steroid release from nasal polyp explants after dexamethasone incubation; assay type: cell-based; conditions: polyp explants after 30-minute dexamethasone 0.05 mg/mL; PSC 833 (804) vs media alone
Protocol: The ability of nasal polyp explants to retain steroid after a 30-minute incubation in dexamethasone (0.05 mg/mL, n=6) was examined. Following incubation, polyp explants were placed either in media alone or in media containing the P-gp inhibitor PSC 833 (804) and the amount of steroid released by the explants into the surrounding media was measured.

PNECCs = test: 0.4% trypan blue cell survival assay in PNECCs; assay type: cell-based, human
Protocol: PNECC cells were exposed to 23 hours of stimulation with lipopolysaccharide (LPS, 0.05 mg/mL), which is a toll-like receptor 4 agonist and capable of eliciting a strong immune responses. Control cells were considered those exposed to culture medium alone (BEGM). A 0.4% trypan blue (Sigma, St. Louis, MO) cell survival assay was used to ensure the stimulant exposures were not cytotoxic. In all wells, less than 20% of cells were stained blue indicating greater than 80% survival of the cells. Following the LPS exposures, the media was removed from each well.
Cells were exposed to 23 hours of stimulation with LPS (0.05 mg/mL) with or without concomitant P-gp inhibition by PSC 833(8 micM), which was applied to cells 1 hour prior to LPS treatment. Control wells were considered those exposed to culture medium alone (BEGM). A 0.4% trypan blue (Sigma, St. Louis, MO) cell survival assay was used to ensure the stimulant and inhibitor exposures were not cytotoxic. In all wells less than 20% of cells were stained blue indicating greater than 80% survival. Following the LPS and PSC 833 exposures, the media was removed from each well. Cytokine concentrations for IL-6, IL-8, GM-CSF, and TSLP in each well were determined by ELISA according to the manufacturer guidelines (eBioscience, San Diego, CA). […]

P-gp [3] = assay type: cell-based, human; conditions: PNECCs, mean
Protocol: Following removal of media from each well, the cytoplasmic and membranous protein fractions were isolated using a two-step extraction assay (DualXtract, Bulldog Bio, Inc., Portsmouth, NH). Membrane bound P-gp was quantified by subjecting the membranous fraction to ELISA (USCN Life Sciences Inc., Wuhan, P.R. China) and normalized to the cytoplasmic protein concentration.
In some wells, a specific P-gp inhibitor (PSC 833 8 micM, Tocris Bioscience, Bristol, UK) was applied to the cells 1 hour prior to LPS stimulation. Following the LPS and PSC 833 treatment, the media was removed from each well, and ELISA was performed to quantify membrane bound P-gp.

GM-CSF secretion = GM-CSF secretion in LPS stimulated CRSwNP primary sinonasal epithelial cells with dexamethasone; assay type: cell-based, human; conditions: LPS 0.0125 mg/ml
Source text: The increase in intracellular corticosteroid concentration potentiates its anti-inflammatory effect. Primary sinonasal epithelial cell culture was derived from patients with chronic sinusitis with nasal polyps (CRSwNP) and stimulated with LPS, a component of gram negative bacterial cell walls.

P-gp [4] = target: T1, P-gp; test: Intracellular dexamethasone retention in primary sinonasal epithelial cells (CRSwNP); assay type: cell-based; conditions: LPS stimulated, three patients
Source text: These cultured primary sinonasal epithelial cells were stimulated with lipopolysaccharide (LPS) in the presence or absence of the P-gp inhibitor PSC 833.

[5] = tested on: IL-6, IL-8, GM-CSF, TSLP secretion in PNECCs; test: LPS stimulated cytokine secretion (ELISA) in PNECCs; assay type: cell-based, human; conditions: mean; for normalized IL-6 secretion: normalized to total media protein
Protocol: Cells were exposed to 23 hours of stimulation with LPS (0.05 mg/mL) with or without concomitant P-gp inhibition by PSC 833(8 micM), which was applied to cells 1 hour prior to LPS treatment. Control wells were considered those exposed to culture medium alone (BEGM). A 0.4% trypan blue (Sigma, St. Louis, MO) cell survival assay was used to ensure the stimulant and inhibitor exposures were not cytotoxic. In all wells less than 20% of cells were stained blue indicating greater than 80% survival. Following the LPS and PSC 833 exposures, the media was removed from each well. Cytokine concentrations for IL-6, IL-8, GM-CSF, and TSLP in each well were determined by ELISA according to the manufacturer guidelines (eBioscience, San Diego, CA). Cytokine concentrations were normalized to total media protein concentrations using a Pierce BCA Protein Assay Kit.

[6] = tested on: GM-CSF, IL-6, IL-8, IL-25 secretion in HSNECCs; test: P-gp mediated cytokine secretion testing (ELISA) in HSNECCs; assay type: cell-based, human
Protocol: as §1

P-gp [7] = test: Q-FIHC for membranous P-gp expression in PNECCs; assay type: cell-based, human; conditions: LPS 0.05 mg/mL, 23 h
Protocol: Exclusion criteria included the following: diagnosis of chronic sinusitis, use of oral steroids or immunotherapy within the preceding 4 weeks, aspirin sensitivity, ciliary dysfunction, autoimmune disease, cystic fibrosis, or any known immunodeficiency. All tissues were derived from schneiderian mucosa within the middle meatus.
Mucosal biopsies were washed and digested in Pronase for 90 minutes at 37° C. Cell suspensions were separated from particulate matter by centrifugation and resuspended in basal epithelial growth medium (BEGM) (Lonza, Basel, Switzerland). Cells were plated for 2 hours on standard tissue culture plates to remove contaminating fibroblasts. Cells were then expanded for 3-5 days on collagen coated 75 cm 2 dishes (Corning Life Sciences, Corning, NY). Once confluent, the PNECCs were trypsinized and re-seeded evenly on human collagen type IV-coated 6-well tissue culture plates. Cultures were grown to 80% confluence in BEGM prior to testing. PNECC cells intended for immunohistochemistry were grown on tissue culture treated coverslips placed within the wells. […]
Q-FIHC for membranous P-gp expression was performed using previously described techniques (Kirkeby et al., 2005). […] The mean corrected luminosity was considered the staining intensity (calculated using Image J v1.45s) divided by the total number of pixels subtended by the cells.

P-gp [8] = test: ELISA of membrane-bound P-glycoprotein in CRSwNP HSNECCs; assay type: cell-based, human; conditions: LPS 0.05 mg/mL, ng/mL normalized to total cytoplasmic protein (mcg/mL) per FIG. 17B
Protocol: Human sinonasal nasal epithelial cell cultures (HSNECCs) from five patients were grown from nasal polyps as previously described. Briefly, polyp samples were washed and digested in Pronase for 90 minutes at 37° C. Cell suspensions were separated from particulate matter by centrifugation and resuspended in BEGM. Cells were plated for 2 hours on standard tissue culture plates to remove contaminating fibroblasts. Cells were then expanded for 3-5 days on collagen coated 75 cm^2 dishes (Corning Life Sciences, Corning, NY). Once confluent, the HSNECCs were trypsinized and re-seeded evenly on human collagen type IV-coated 6-well and 96-well tissue culture plates. 6-well cultures were grown to 80% confluence in BEGM prior to cytokine and protein analysis. 96-well plates intended for the dose dependent inhibition assay were grown to 100% confluence. Cells intended for immunohistochemistry were grown on tissue culture treated coverslips.
Membrane-bound P-glycoprotein in HSNECCs was quantified as follows. After removal of media from each well, the cytoplasmic and membranous protein fractions were isolated using a two-step extraction assay (DualXtract, Bulldog Bio, Inc., Portsmouth, NH).

[9] = LPS 0.05 mg/mL + PSC 833 8 micM
[10] = LPS 0.05 mg/mL + PSC 833 8 μM, no inhibition

T1 sequence (P08183 whole entry): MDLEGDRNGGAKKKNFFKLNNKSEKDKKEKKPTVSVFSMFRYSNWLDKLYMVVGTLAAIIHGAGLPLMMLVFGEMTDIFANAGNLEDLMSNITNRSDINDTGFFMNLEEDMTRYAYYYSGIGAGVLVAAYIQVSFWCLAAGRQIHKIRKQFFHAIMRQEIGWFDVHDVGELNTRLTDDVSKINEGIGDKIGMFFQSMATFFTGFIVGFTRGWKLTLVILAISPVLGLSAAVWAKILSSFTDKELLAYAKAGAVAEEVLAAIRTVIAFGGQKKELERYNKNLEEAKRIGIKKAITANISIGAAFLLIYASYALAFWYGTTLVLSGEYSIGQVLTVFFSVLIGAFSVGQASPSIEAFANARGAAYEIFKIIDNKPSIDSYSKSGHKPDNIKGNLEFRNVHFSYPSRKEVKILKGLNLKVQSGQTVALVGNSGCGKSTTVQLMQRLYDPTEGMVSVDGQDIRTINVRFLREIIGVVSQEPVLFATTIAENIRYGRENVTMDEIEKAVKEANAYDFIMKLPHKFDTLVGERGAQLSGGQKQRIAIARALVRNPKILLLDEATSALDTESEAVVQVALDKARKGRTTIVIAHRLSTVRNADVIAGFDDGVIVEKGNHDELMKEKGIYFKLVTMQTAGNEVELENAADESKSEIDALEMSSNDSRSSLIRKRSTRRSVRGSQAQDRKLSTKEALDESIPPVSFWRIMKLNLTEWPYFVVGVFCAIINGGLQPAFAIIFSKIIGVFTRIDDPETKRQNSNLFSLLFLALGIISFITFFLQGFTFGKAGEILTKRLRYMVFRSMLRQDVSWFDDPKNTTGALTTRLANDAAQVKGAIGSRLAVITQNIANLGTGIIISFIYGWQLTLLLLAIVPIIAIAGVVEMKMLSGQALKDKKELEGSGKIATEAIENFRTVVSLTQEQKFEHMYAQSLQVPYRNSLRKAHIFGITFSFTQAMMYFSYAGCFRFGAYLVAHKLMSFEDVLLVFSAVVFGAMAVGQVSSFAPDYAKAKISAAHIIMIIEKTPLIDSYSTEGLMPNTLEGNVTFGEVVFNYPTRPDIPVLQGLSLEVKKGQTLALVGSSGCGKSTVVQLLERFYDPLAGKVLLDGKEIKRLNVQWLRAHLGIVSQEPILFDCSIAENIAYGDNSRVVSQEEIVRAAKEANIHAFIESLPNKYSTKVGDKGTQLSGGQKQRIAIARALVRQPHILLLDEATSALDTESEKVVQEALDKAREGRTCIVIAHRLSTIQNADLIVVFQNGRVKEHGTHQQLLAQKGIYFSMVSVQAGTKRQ

Compound: CCOC/C=C/c1ccc(-c2nc(-c3ccc(NC(C)C)cc3)c(-c3ccc(NC(C)C)cc3)[nH]2)cc1 [OC144093, 4-[2-[4-[(E)-3-ethoxyprop-1-enyl]phenyl]-4-[4-(propan-2-ylamino)phenyl]-1H-imidazol-5-yl]-N-propan-2-ylaniline]
- potency relative to the first and second-generation P-gp inhibitors (P-gp [1]): about 10 fold

Compound: C/C=C/C[C@@H](C)C(=O)[C@H]1C(=O)N[C@@H](C(C)C)C(=O)N(C)CC(=O)N(C)[C@@H](CC(C)C)C(=O)N[C@@H](C(C)C)C(=O)N(C)[C@@H](CC(C)C)C(=O)N[C@@H](C)C(=O)N[C@H](C)C(=O)N(C)[C@@H](CC(C)C)C(=O)N(C)[C@@H](CC(C)C)C(=O)N(C)[C@@H](C(C)C)C(=O)N1C [PSC 833, 6-[(2S,4R,6E)-4-methyl-2-(methylamino)-3-oxo-6-octenoic acid]-7-L-valine-cyclosporin A]
- cell survival (trypan blue) (HSNECC cells): greater than 80%
- steroid release by explants into surrounding media (P-gp [2]): statistically significant decrease
- cell survival (trypan blue) (PNECCs; human, 24 h, 8 µM): greater than 80%
- normalized membranous P-gp (ELISA, normalized to cytoplasmic protein) (P-gp [3]; LPS + PSC 833 8 micM applied 1 hour prior to LPS, not significant vs LPS alone (p=0.115)): 70.40
- GM-CSF secretion compared to dexamethasone treatment alone (GM-CSF secretion; PSC833 (804) + dexamethasone 0.1 mg/mL): reduced GM-CSF secretion
- intracellular dexamethasone retention relative to dexamethasone alone (P-gp [4]): increased intracellular dexamethasone retention
- normalized GM-CSF secretion [5, 9]: 7.64
- normalized TSLP secretion [5, 9]: 5.13
- normalized IL-8 secretion ([5]; LPS 0.05 mg/mL + PSC 833 8 micM, reduction not significant (p=0.313)): 801.09
- normalized IL-6 secretion [5, 9]: 37.60
- secretion of GM-CSF normalized to total media protein ([6]; LPS 0.05 mg/mL + PSC 833 8 μM): 8.47+/−3.28 pcg/mL normalized to total med
- secretion of IL-6 normalized to total media protein ([6]; LPS 0.05 mg/mL + PSC 833 8 μM): 39.94+/−31.07 pcg/mL normalized to total med
- secretion of IL-8 normalized to total media protein [6, 10]: 1608.41+/−471.94 pcg/mL normalized to total med
- secretion of IL-25 normalized to total media protein [6, 10]: 0.073+/−0.038 pcg/mL normalized to total med

Compound: COc1cc2c(cc1OC)CN(CCc1ccc(NC(=O)c3cc(OC)c(OC)cc3NC(=O)c3cnc4ccccc4c3)cc1)CC2 [XR9576, N-[2-[[4-[2-(6,7-Dimethoxy-3,4-dihydro-1H-isoquinolin-2-yl)ethyl]phenyl]carbamoyl]-4,5-dimethoxyphenyl]quinoline-3-carboxamide]
- potency relative to the first and second-generation P-gp inhibitors (P-gp [1]): about 10 fold

Compound: lipopolysaccharide [LPS]
- mean corrected luminosity of membranous P-gp (Q-FIHC) (P-gp [7]): 9.64
- cell survival (trypan blue) (PNECCs; PNECCs, LPS 0.05 mg/mL, 23 hours): greater than 80%
- normalized membranous P-gp (ELISA, normalized to cytoplasmic protein) (P-gp [3]; LPS 0.05 mg/mL alone, 23 h): 19.63
- GM-CSF secretion versus unstimulated control cells (GM-CSF secretion): increased GM-CSF secretion
- mean normalized concentration of membranous P-gp (ELISA) (P-gp [8]): 22.23+/−10.22
- normalized GM-CSF secretion ([5]; LPS 0.05 mg/mL alone, 23 h): 39.92
- normalized IL-8 secretion ([5]; LPS 0.05 mg/mL alone, 23 h): 912.91
- normalized TSLP secretion ([5]; LPS 0.05 mg/mL alone, 23 h): 6.65
- normalized IL-6 secretion ([5]; LPS 0.05 mg/mL alone, 23 h): 79.67
- secretion of GM-CSF normalized to total media protein ([6]; LPS 0.05 mg/mL alone, 23 hours): 45.21+/−41.39 pcg/mL normalized to total med
- secretion of IL-6 normalized to total media protein ([6]; LPS 0.05 mg/mL alone, 23 hours): 63.16+/−36.37 pcg/mL normalized to total med
- secretion of IL-8 normalized to total media protein ([6]; LPS 0.05 mg/mL alone, 23 hours): 1041.17+/−550.52 pcg/mL normalized to total med
- secretion of IL-25 normalized to total media protein ([6]; LPS 0.05 mg/mL alone, 23 hours): 0.075+/−0.039 pcg/mL normalized to total med
